Measured values: paper PMC9583845, “Characterization of the chicken melanocortin 5 receptor and its potential role in regulating hepatic glucolipid metabolism” (Frontiers in Physiology, 2022)

Columns and labels:
[1] = test system: ELOVL6 mRNA, primary chicken hepatocytes; assay: ELOVL6 mRNA in primary chicken hepatocytes, RT-qPCR; type: cell-based; conditions: 6 h, N = 4, Figures 8A-C
Description: (§1) To evaluate the effect of ACTH1-39 on chicken liver, the chicken hepatocytes were prepared and maintained as a monolayer culture. Briefly, one-month-old male chicken hepatocytes were isolated by perfusion of a liver with Ca^2+-free KRB buffer to remove blood cells, and being digested with 0.25% collagenase-I for 10 min. Hepatocytes were obtained following filtering and washing using M199 medium. Then the hepatocytes were plated in a Corning CellBIND 48-well microplate (Corning, NY, cat. no.3338) with M199 medium containing 100 U/ml penicillin and […] streptomycin (Gibco), 5 μg/ml bovine insulin (Sigma), and 5% FBS at 37°C in a 5% CO2 atmosphere. To adhere to the wall, the cells were incubated on the 48-well plate for 4 h.
(§2) For quantitative real-time PCR, primary cultured chicken hepatocytes were treated with various concentrations of ACTH1-39 (or other composition) at 37°C for 6 h. The relative amount of mRNA was calculated using the comparative Ct method. Chicken β-actin gene was used as the reference gene. Amplification of specific transcripts was confirmed by analyzing the melting curve profile performed at the end of each run and by determining the size of the PCR products using agarose electrophoresis and ethidium bromide staining.

[2] = test system: SCD mRNA, primary chicken hepatocytes; assay: SCD mRNA in primary chicken hepatocytes, RT-qPCR; type: cell-based; conditions: 0.1–100 nM, 6 h, N = 4, Figure 8I, listed as not decreased
Description: as §1, §2

chicken MC5R + MRAP2 = chicken MC5R + MRAP2 (Gallus gallus, UniProt O73671); assay: pGL3-CRE-luciferase reporter assay, CHO cells co-expressing MC5R and cMRAP2; type: cell-based; conditions: for effect of MRAP2 co-expression on sensitivity of MC5R: vs MC5R expressed alone
Sequence of chicken MC5R + MRAP2 (O73671 1-325): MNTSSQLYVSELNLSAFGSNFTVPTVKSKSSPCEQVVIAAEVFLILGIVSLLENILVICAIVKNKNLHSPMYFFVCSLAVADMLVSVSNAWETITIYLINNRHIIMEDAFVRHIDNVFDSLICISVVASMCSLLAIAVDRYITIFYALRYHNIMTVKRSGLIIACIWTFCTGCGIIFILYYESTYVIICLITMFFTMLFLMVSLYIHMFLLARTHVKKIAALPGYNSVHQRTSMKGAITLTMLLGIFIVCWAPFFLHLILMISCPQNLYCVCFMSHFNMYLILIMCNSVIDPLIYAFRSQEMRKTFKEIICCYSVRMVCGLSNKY
Sequence of chicken MC5R + MRAP2 (A0A140B2F4 1-206 partner): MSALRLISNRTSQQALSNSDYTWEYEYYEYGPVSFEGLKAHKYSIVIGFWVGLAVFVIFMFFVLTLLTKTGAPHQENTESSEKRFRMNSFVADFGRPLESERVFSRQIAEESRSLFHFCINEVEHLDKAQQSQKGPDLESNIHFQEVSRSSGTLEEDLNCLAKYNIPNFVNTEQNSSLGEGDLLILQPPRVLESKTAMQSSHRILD
Description: The expression plasmids encoding MC5R, MRAP1 and MRAP2 were established by cloning their entire open reading frame (ORF) into the pcDNA3.1 (+) expression vector (Invitrogen).
The cells were then transfected with a mixture containing 700 ng pGL3-CRE-Luciferase reporter construct, 200 ng of receptor expression plasmid (or empty pcDNA3.1 vector as a negative control), 20 ng of pRL-TK construct (containing a Renilla luciferase gene, used as an internal control), and 2 μl jetPRIME transfection reagent (Polyplus Transfection, Illkirch, France) in 200 μL buffer. […] After removal of the medium from the 96-well plate, the cells were treated with 100 μl ligand-containing medium (or ligand-free medium) for 6 h. Finally, CHO cells were lysed with 1 × passive lysis buffer for luciferase assay (Promega) and the luciferase activity of the cell lysate was measured by a Multimode Microplate Reader (TriStar LB941, EG&G Berthold, Germany) according to the manufacturer’s instruction.
All statistical analysis was performed using GraphPad Prism 9 (Graph Pad Software Inc., San Diego, CA). The dose-response curves were constructed using nonlinear regression models. Student’s test was used to compare two groups, for more than two groups one-way ANOVA was performed followed by Dunnett’s test. To validate our results, all in-vitro experiments were repeated three times, and representative data are reported.

[3] = test system: primary chicken hepatocytes; assay: Lipid quantification by Oil Red O staining, primary cultured chicken hepatocytes; type: cell-based; conditions: 24 h; OD at 540 nm of isopropanol extract; N = 6; Figures 7C–D
Description: as §1
For lipid quantification by Oil Red O staining, after treatment with ACTH1-39 for 24 h, primary cultured chicken hepatocytes were washed with PBS and then fixed with 4% paraformaldehyde for 30 min. After PBS washing, the Oil Red O working solution was added to stain for 30 min. The stained lipids were then visualized by light microscopy after washing in PBS. To quantify the lipid content, the Oil Red O stained in the cells was extracted with isopropanol by measuring the OD value at 540 nm.

[4] = test system: THRSPA mRNA, primary chicken hepatocytes; assay: THRSPA mRNA in primary chicken hepatocytes, RT-qPCR; type: cell-based; conditions: 6 h, N = 4, Figures 8D-F
Description: as §1, §2

[5] = test system: primary chicken hepatocytes; assay: Triglyceride content, primary chicken hepatocytes; type: cell-based; conditions: 24 h, normalized to protein, Figure 7E
Description: as §1
For measurement of triglyceride content, after treated with ACTH1-39 for 24 h, hepatocytes were harvested and triglyceride (TG) content was analyzed using a commercial triglyceride content assay kit (Applygen, Beijing, China, catalog no. E1013). Results were normalized to the protein content of each sample, as determined using a BCA assay kit (Beyotime Institute of Biotechnology, China, catalog no. P0010).

7-day chickens = conditions: continuous administration through mini-osmotic pumps, ref Puvadolpirod and Thaxton, 2000a; cited from earlier work
Text: Early studies have tested the effect of continuous ACTH administration in 7-day chickens ([Puvadolpirod and Thaxton, 2000a]; [Puvadolpirod and Thaxton, 2000b]; [Puvadolpirod and Thaxton, 2000c]; [Puvadolpirod and Thaxton, 2000d]; [Thaxton and Puvadolpirod, 2000]). […] A series of effects of ACT ...

- EC50 (chicken MC5R + MRAP2; Table 1 / Figure 3, co-expressed with cMRAP2, 6 h, pGL3-CRE-luciferase, mean ± SEM of at least three independent experiments (figure: four replicates), ^a: significantly different from the parameter of MC5R, p < 0.01): 3.19 ± 1.09 nM
Substance: H-SYSMEHFRWGKPVGRKRRPIKVYPNGVDEESAESYPMEF-OH [ACTH1-39]
- ELOVL6 mRNA expression [1]: dose-dependently decreased
- SCD mRNA expression [2]: instead of ACACA, FASN and SCD
- effect of MRAP2 co-expression on sensitivity of MC5R (chicken MC5R + MRAP2; α-MSH p < 0.01): did not affect the sensitivity of cMC5R to ACTH1-39
- effect of MRAP2 co-expression on sensitivity of MC5R (chicken MC5R + MRAP2; α-MSH p < 0.01, listed as ACTH): no effect on the sensitivity of chicken MC5R for ACTH
- lipid contents (Oil Red O staining) [3]: lipid contents were lower in the ACTH-treat group in a dose-dependent manner
- THRSPA mRNA expression [4]: dose-dependently decreased
- triglyceride (TG) contents [5]: decreased triglyceride contents
- triglyceride (TG) contents ([5]; listed as ACTH): prominently decreased triglyceride (TG) contents
- plasma corticosterone (7-day chickens): a fast rise in plasma corticosterone
- plasma glucose and relative liver weight (7-day chickens): an increase in plasma glucose and relative liver weight
